Reference: paper PMC5025758 (Nature Communications, 2016)

Experiments:
[1] = molecular target: T1, Opioid μ (Homo sapiens, UniProt P35372); assay: cell-based; parameters: off-target selectivity panel, receptor agonist or channel opener mode, pXC50; details: agonist mode; read-out: pXC50 (agonist) (converted)
T1 construct: gene OPRM1
Description: (§1) From the outset, GSK3011724A, an indazole sulfonamide (Fig. 1a), represented an attractive compound for early stage drug discovery based on its anti-mycobacterial potency, small size and moderate lipophilicity (Table 1). Further profiling in vitro using standard assays, such as the hERG ion channel and cytochrome P450 isoforms supported this view (Table 1). […] A description of this optimization effort along with a thorough discussion of the drug development potential and liabilities of this series will be the subject of a future publication.

[2] = molecular target: T2, Adrenergic β2 (Homo sapiens, UniProt P07550); assay: cell-based; parameters: off-target selectivity panel, receptor agonist or channel opener mode, pXC50; details: agonist mode; read-out: pXC50 (agonist) (converted)
T2 construct: gene ADRB2
T2 sequence (P07550 whole entry): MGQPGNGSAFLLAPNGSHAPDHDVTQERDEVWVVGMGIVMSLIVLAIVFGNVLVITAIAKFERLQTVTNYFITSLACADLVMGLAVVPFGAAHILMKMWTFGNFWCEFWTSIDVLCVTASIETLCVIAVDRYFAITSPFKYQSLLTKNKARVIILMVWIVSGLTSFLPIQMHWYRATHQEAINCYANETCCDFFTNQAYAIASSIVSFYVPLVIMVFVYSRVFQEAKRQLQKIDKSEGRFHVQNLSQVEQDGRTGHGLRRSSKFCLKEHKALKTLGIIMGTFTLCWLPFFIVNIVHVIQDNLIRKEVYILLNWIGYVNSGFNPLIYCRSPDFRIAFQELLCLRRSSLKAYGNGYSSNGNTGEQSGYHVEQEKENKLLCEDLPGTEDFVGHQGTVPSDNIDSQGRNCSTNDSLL
Description: as §1

[3] = molecular target: T3, Serotonin 5HT3 (Homo sapiens, UniProt P46098); assay: cell-based; parameters: off-target selectivity panel, receptor agonist or channel opener mode, pXC50; details: opener mode; read-out: pXC50 (opener) (converted)
T3 construct: gene HTR3A
T3 sequence (P46098 whole entry): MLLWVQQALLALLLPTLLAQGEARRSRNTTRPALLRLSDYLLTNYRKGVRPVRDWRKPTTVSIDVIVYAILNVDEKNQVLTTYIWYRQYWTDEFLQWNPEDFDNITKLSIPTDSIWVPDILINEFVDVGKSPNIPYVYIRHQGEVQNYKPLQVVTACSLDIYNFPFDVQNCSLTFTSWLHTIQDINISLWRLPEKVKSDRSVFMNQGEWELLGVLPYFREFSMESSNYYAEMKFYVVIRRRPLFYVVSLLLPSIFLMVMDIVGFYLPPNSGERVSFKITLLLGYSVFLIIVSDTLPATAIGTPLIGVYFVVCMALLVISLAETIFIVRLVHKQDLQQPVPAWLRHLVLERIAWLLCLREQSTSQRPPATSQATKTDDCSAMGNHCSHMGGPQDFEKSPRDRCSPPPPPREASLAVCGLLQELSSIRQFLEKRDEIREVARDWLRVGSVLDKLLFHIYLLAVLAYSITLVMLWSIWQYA
Description: as §1

[4] = molecular target: T4, Muscarine M1 (Homo sapiens, UniProt P11229); assay: cell-based; parameters: off-target selectivity panel, receptor agonist or channel opener mode, pXC50; details: agonist mode; read-out: pXC50 (agonist) (converted)
T4 construct: gene CHRM1
T4 sequence (P11229 whole entry): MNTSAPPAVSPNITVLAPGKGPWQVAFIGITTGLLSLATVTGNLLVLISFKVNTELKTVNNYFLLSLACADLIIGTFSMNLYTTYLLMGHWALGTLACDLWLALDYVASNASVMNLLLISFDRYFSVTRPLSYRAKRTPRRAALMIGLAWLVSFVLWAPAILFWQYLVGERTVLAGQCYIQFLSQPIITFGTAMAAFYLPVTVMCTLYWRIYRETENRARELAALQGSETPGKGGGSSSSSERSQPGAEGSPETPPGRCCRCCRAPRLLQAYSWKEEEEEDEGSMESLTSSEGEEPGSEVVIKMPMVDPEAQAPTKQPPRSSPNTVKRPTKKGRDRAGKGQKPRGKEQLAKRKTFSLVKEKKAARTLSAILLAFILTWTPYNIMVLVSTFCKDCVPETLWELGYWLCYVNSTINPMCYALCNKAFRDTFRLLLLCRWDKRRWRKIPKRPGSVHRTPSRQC
Description: as §1

[5] = molecular target: T5, Serotonin 5HT2C (Homo sapiens, UniProt P28335); assay: cell-based; parameters: off-target selectivity panel, receptor agonist or channel opener mode, pXC50; details: agonist mode; read-out: pXC50 (agonist) (converted)
T5 construct: gene HTR2C
T5 sequence (P28335 whole entry): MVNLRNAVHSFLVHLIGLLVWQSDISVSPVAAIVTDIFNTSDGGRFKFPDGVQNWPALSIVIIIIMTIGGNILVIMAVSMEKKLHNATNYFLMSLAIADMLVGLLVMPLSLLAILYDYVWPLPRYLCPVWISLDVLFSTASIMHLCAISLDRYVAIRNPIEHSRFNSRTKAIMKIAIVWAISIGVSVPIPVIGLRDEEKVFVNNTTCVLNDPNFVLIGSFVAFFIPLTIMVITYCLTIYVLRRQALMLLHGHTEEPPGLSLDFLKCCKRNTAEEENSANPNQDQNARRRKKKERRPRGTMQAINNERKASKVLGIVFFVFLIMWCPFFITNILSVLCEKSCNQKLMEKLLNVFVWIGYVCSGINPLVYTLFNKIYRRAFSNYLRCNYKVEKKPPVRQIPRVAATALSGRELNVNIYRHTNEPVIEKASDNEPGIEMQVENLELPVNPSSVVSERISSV
Description: as §1

[6] = molecular target: T6, α1 nicotinic AChR (Homo sapiens, UniProt P02708); assay: cell-based; parameters: off-target selectivity panel, receptor agonist or channel opener mode, pXC50; details: opener mode; read-out: pXC50 (opener) (converted)
T6 construct: gene CHRNA1
T6 sequence (P02708 whole entry): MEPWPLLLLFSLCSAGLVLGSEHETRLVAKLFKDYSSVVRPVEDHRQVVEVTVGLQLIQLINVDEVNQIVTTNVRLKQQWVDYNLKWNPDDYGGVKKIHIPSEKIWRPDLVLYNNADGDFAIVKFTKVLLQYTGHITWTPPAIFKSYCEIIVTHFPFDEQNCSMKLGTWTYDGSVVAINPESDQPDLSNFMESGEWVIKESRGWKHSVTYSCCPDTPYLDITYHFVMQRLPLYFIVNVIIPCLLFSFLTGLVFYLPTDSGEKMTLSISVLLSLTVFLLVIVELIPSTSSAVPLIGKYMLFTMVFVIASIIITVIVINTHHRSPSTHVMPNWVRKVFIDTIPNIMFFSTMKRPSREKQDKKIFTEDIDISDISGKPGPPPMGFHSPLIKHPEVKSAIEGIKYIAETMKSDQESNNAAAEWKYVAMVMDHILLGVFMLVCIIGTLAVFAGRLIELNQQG
Description: as §1

[7] = molecular target: T7, Adenosine A2a (Homo sapiens, UniProt P29274); assay: cell-based; parameters: off-target selectivity panel, receptor agonist or channel opener mode, pXC50; details: agonist mode; read-out: pXC50 (agonist) (converted)
T7 construct: gene ADORA2A
Description: as §1

[8] = molecular target: AhR (Homo sapiens, UniProt P35869); assay: cell-based; parameters: off-target selectivity panel, receptor agonist or channel opener mode, pXC50; details: agonist mode; read-out: pXC50 (agonist) (converted)
Description: as §1

[9] = molecular target: T8, Dopamine D2 (Homo sapiens, UniProt P14416); assay: cell-based; parameters: off-target selectivity panel, receptor agonist or channel opener mode, pXC50; details: agonist mode; read-out: pXC50 (agonist) (converted)
T8 construct: gene DRD2
T8 sequence (P14416 whole entry): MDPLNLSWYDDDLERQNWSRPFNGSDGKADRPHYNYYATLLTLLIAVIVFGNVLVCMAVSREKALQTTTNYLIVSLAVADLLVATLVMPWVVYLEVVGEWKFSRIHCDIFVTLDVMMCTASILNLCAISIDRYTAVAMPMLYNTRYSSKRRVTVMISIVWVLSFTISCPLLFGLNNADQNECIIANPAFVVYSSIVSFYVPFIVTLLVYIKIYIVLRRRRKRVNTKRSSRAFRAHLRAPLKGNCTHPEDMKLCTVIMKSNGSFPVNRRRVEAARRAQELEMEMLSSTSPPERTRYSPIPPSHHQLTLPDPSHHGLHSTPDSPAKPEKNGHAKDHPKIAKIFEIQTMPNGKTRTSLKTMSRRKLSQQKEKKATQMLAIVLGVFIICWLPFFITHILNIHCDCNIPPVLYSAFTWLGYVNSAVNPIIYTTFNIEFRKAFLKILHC
Description: as §1

[10] = molecular target: T9, Serotonin 5HT2A (Homo sapiens, UniProt P28223); assay: cell-based; parameters: off-target selectivity panel, receptor agonist or channel opener mode, pXC50; details: agonist mode; read-out: pXC50 (agonist) (converted)
T9 construct: gene HTR2A
T9 sequence (P28223 whole entry, looked up): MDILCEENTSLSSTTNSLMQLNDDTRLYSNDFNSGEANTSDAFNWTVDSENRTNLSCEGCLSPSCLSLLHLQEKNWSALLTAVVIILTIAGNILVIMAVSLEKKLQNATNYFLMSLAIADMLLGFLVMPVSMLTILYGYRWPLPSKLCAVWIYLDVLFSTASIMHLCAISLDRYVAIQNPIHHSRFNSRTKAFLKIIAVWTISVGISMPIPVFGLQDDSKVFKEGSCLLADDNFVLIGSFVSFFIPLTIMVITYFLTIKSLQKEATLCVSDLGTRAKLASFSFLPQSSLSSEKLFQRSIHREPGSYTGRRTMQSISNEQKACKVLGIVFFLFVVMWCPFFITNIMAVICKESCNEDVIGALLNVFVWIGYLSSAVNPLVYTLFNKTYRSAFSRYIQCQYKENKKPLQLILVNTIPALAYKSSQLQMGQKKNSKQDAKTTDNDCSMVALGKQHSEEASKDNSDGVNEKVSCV
Description: as §1

[11] = molecular target: T10, Muscarine M2 (Homo sapiens, UniProt P08172); assay: cell-based; parameters: off-target selectivity panel, receptor agonist or channel opener mode, pXC50; details: agonist mode; read-out: pXC50 (agonist) (converted)
T10 construct: gene CHRM2
T10 sequence (P08172 whole entry): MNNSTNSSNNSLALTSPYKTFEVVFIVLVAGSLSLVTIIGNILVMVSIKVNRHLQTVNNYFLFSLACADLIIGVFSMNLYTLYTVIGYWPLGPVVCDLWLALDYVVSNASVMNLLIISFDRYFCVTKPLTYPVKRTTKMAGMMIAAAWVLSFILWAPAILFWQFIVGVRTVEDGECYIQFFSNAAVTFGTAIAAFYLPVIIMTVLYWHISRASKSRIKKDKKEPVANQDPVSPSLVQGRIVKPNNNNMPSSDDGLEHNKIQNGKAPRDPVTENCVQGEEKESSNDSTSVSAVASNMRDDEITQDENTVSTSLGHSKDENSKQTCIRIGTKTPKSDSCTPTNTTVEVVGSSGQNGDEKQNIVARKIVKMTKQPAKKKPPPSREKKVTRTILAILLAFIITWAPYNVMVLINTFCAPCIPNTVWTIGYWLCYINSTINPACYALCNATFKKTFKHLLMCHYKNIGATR
Description: as §1

[12] = molecular target: T11, Adrenergic α2C (Homo sapiens, UniProt P18825); assay: cell-based; parameters: off-target selectivity panel, receptor agonist or channel opener mode, pXC50; details: agonist mode; read-out: pXC50 (agonist) (converted)
T11 construct: gene ADRA2C
Description: as §1

[13] = molecular target: T12, PXR (Homo sapiens, UniProt O75469); assay: cell-based; parameters: off-target selectivity panel, receptor agonist or channel opener mode, pXC50; details: agonist mode; read-out: pXC50 (agonist) (converted)
T12 construct: gene NR1I2
Description: as §1

[14] = molecular target: T13, Cannabinoid CB2 (Homo sapiens, UniProt P34972); assay: cell-based; parameters: off-target selectivity panel, receptor agonist or channel opener mode, pXC50; details: agonist mode; read-out: pXC50 (agonist) (converted)
T13 construct: gene CNR2
Description: as §1

[15] = molecular target: T14, Serotonin 5HT1B (Homo sapiens, UniProt P28222); assay: cell-based; parameters: off-target selectivity panel, receptor agonist or channel opener mode, pXC50; details: agonist mode; read-out: pXC50 (agonist) (converted)
T14 construct: gene HTR1B
T14 sequence (P28222 whole entry): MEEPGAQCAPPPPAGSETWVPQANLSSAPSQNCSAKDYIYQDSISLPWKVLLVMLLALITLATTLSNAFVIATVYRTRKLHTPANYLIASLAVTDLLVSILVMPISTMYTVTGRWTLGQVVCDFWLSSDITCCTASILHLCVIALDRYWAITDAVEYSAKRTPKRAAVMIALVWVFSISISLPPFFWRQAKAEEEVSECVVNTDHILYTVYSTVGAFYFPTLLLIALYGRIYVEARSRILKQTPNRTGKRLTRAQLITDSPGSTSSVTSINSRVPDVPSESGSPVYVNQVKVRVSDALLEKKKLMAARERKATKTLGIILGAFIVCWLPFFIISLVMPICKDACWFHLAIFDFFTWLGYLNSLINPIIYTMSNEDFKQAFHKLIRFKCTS
Description: as §1

[16] = molecular target: T15, Opioid κ (Homo sapiens, UniProt P41145); assay: cell-based; parameters: off-target selectivity panel, receptor agonist or channel opener mode, pXC50; details: agonist mode; read-out: pXC50 (agonist) (converted)
T15 construct: gene OPRK1
Description: as §1

[17] = molecular target: Pks10 (Mycobacterium tuberculosis, UniProt Q7VEV2); format: biochemical
[18] = molecular target: T16, Acetylcholinesterase (Homo sapiens, UniProt P22303); assay: biochemical; parameters: off-target selectivity panel, enzyme and kinase inhibition, pXC50; details: read-out: pXC50 (enzyme inhibition) (converted)
T16 construct: gene ACHE
Description: as §1

[19] = molecular target: PDE3A (Homo sapiens, UniProt Q14432); assay: biochemical; parameters: off-target selectivity panel, enzyme and kinase inhibition, pXC50; details: read-out: pXC50 (enzyme inhibition) (converted)
Description: as §1

[20] = molecular target: T17, PI3Kγ (Homo sapiens, UniProt P48736); assay: biochemical; parameters: off-target selectivity panel, enzyme and kinase inhibition, pXC50; details: read-out: pXC50 (enzyme inhibition) (converted)
T17 construct: gene PIK3CG
Description: as §1

[21] = molecular target: T18, COX-2 (Homo sapiens, UniProt P35354); assay: biochemical; parameters: off-target selectivity panel, enzyme and kinase inhibition, pXC50; details: read-out: pXC50 (enzyme inhibition) (converted)
T18 construct: gene PTGS2
T18 sequence (P35354 whole entry): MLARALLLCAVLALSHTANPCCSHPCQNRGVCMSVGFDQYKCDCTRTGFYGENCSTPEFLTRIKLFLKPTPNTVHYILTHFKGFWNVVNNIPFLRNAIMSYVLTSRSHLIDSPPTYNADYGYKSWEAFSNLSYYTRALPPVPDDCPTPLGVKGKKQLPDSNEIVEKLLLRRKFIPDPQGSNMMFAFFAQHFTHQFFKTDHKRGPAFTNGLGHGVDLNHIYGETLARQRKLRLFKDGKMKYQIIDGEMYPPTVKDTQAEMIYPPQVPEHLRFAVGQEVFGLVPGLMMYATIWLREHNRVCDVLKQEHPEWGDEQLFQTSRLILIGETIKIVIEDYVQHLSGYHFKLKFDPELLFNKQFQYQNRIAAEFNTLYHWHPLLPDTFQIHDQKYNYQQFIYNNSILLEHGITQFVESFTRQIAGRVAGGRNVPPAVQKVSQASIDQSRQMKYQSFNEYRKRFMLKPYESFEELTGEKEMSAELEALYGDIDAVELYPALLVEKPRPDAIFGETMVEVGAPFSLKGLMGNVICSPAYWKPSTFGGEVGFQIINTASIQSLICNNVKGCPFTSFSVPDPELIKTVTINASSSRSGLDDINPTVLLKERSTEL
Description: as §1

[22] = molecular target: LCK (Homo sapiens, UniProt P06239); assay: biochemical; parameters: off-target selectivity panel, enzyme and kinase inhibition, pXC50; details: read-out: pXC50 (enzyme inhibition) (converted)
Description: as §1

[23] = molecular target: NQO2 (Homo sapiens, UniProt P16083); assay: chemoproteomic competition binding in mixed HEK293/K562/placenta extract, LC-MS/MS; format: biochemical
Chain of NQO2 (P16083 whole entry): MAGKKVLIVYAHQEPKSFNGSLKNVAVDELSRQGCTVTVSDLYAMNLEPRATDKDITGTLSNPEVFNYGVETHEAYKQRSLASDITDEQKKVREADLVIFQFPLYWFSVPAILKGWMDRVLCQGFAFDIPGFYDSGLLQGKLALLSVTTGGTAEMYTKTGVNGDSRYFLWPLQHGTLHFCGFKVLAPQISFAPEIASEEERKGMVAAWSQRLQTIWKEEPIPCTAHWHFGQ

[24] = molecular target: T19, NMDA Channel (NR2B) (Homo sapiens, UniProt Q13224); assay: cell-based; parameters: off-target selectivity panel, receptor antagonist, channel blocker or transporter inhibition mode, pXC50; details: read-out: pXC50 (blocker / transporter inhibition) (converted)
T19 construct: gene GRIN2B
Description: as §1

[25] = molecular target: T2, Adrenergic β2; assay: cell-based; parameters: off-target selectivity panel, receptor antagonist, channel blocker or transporter inhibition mode, pXC50; details: antagonist mode; read-out: pXC50 (antagonist) (converted)
Description: as §1

[26] = molecular target: T3, Serotonin 5HT3; assay: cell-based; parameters: off-target selectivity panel, receptor antagonist, channel blocker or transporter inhibition mode, pXC50; details: read-out: pXC50 (blocker / transporter inhibition) (converted)
Description: as §1

[27] = molecular target: T20, Histamine H1 (Homo sapiens, UniProt P35367); assay: cell-based; parameters: off-target selectivity panel, receptor antagonist, channel blocker or transporter inhibition mode, pXC50; details: antagonist mode; read-out: pXC50 (antagonist) (converted)
T20 construct: gene HRH1
Description: as §1

[28] = molecular target: T21, Kv1.5 (Homo sapiens, UniProt P22460); assay: cell-based; parameters: off-target selectivity panel, receptor antagonist, channel blocker or transporter inhibition mode, pXC50; details: read-out: pXC50 (blocker / transporter inhibition) (converted)
T21 construct: gene KCNA5
Description: as §1

[29] = molecular target: T4, Muscarine M1; assay: cell-based; parameters: off-target selectivity panel, receptor antagonist, channel blocker or transporter inhibition mode, pXC50; details: antagonist mode; read-out: pXC50 (antagonist) (converted)
Description: as §1

[30] = molecular target: T5, Serotonin 5HT2C; assay: cell-based; parameters: off-target selectivity panel, receptor antagonist, channel blocker or transporter inhibition mode, pXC50; details: antagonist mode; read-out: pXC50 (antagonist) (converted)
Description: as §1

[31] = molecular target: T6, α1 nicotinic AChR; assay: cell-based; parameters: off-target selectivity panel, receptor antagonist, channel blocker or transporter inhibition mode, pXC50; details: read-out: pXC50 (blocker / transporter inhibition) (converted)
Description: as §1

[32] = molecular target: T22, Dopamine D1 (Homo sapiens, UniProt P21728); assay: cell-based; parameters: off-target selectivity panel, receptor antagonist, channel blocker or transporter inhibition mode, pXC50; details: antagonist mode; read-out: pXC50 (antagonist) (converted)
T22 construct: gene DRD1
Description: as §1

[33] = molecular target: T23, L-type Ca channel (CaV1.2) (Homo sapiens, UniProt Q13936); assay: cell-based; parameters: off-target selectivity panel, receptor antagonist, channel blocker or transporter inhibition mode, pXC50; details: read-out: pXC50 (blocker / transporter inhibition) (converted)
T23 construct: gene CACNA1C
Description: as §1

[34] = molecular target: T8, Dopamine D2; assay: cell-based; parameters: off-target selectivity panel, receptor antagonist, channel blocker or transporter inhibition mode, pXC50; details: antagonist mode; read-out: pXC50 (antagonist) (converted)
Description: as §1

[35] = molecular target: T9, Serotonin 5HT2A; assay: cell-based; parameters: off-target selectivity panel, receptor antagonist, channel blocker or transporter inhibition mode, pXC50; details: antagonist mode; read-out: pXC50 (antagonist) (converted)
Description: as §1

[36] = molecular target: T10, Muscarine M2; assay: cell-based; parameters: off-target selectivity panel, receptor antagonist, channel blocker or transporter inhibition mode, pXC50; details: antagonist mode; read-out: pXC50 (antagonist) (converted)
Description: as §1

[37] = molecular target: T24, Vasopressin V1a (Homo sapiens, UniProt P37288); assay: cell-based; parameters: off-target selectivity panel, receptor antagonist, channel blocker or transporter inhibition mode, pXC50; details: antagonist mode; read-out: pXC50 (antagonist) (converted)
T24 construct: gene AVPR1A
Description: as §1

[38] = molecular target: T25, OATP1B1 (Homo sapiens, UniProt Q9Y6L6); assay: cell-based; parameters: off-target selectivity panel, receptor antagonist, channel blocker or transporter inhibition mode, pXC50; details: read-out: pXC50 (blocker / transporter inhibition) (converted)
T25 construct: gene SLCO1B1
Description: as §1

[39] = molecular target: T26, Adrenergic α1B (Homo sapiens, UniProt P35368); assay: cell-based; parameters: off-target selectivity panel, receptor antagonist, channel blocker or transporter inhibition mode, pXC50; details: antagonist mode; read-out: pXC50 (antagonist) (converted)
T26 construct: gene ADRA1B
Description: as §1

[40] = molecular target: T27, hERG (Homo sapiens, UniProt Q12809); assay: cell-based; parameters: off-target selectivity panel, receptor antagonist, channel blocker or transporter inhibition mode, pXC50; details: read-out: pXC50 (blocker / transporter inhibition) (converted)
T27 construct: gene KCNH2
Description: as §1

[41] = molecular target: T28, Neurokinin NK1 (Homo sapiens, UniProt P25103); assay: cell-based; parameters: off-target selectivity panel, receptor antagonist, channel blocker or transporter inhibition mode, pXC50; details: antagonist mode; read-out: pXC50 (antagonist) (converted)
T28 construct: gene TACR1
Description: as §1

[42] = molecular target: T29, KCNQ1/minK (Homo sapiens, UniProt P15382+P51787); assay: cell-based; parameters: off-target selectivity panel, receptor antagonist, channel blocker or transporter inhibition mode, pXC50; details: read-out: pXC50 (blocker / transporter inhibition) (converted)
T29 construct: gene KCNE1
Description: as §1

[43] = molecular target: T30, NaV1.5 (Homo sapiens, UniProt Q14524); assay: cell-based; parameters: off-target selectivity panel, receptor antagonist, channel blocker or transporter inhibition mode, pXC50; details: read-out: pXC50 (blocker / transporter inhibition) (converted)
T30 construct: gene SCN5A
Description: as §1

[44] = molecular target: T14, Serotonin 5HT1B; assay: cell-based; parameters: off-target selectivity panel, receptor antagonist, channel blocker or transporter inhibition mode, pXC50; details: antagonist mode; read-out: pXC50 (antagonist) (converted)
Description: as §1

[45] = molecular target: Pks11; format: biochemical, Mycobacterium bovis BCG
[46] = molecular target: T31, KasA (Mycobacterium tuberculosis, UniProt P9WQD9); assay: […] Å co-crystal structure; […]; also chemoproteomic Kd app […] and […] enzyme inhibition at […]; format: binding
T31 construct: recombinant KasA from pET28a-kasA

Structure (SMILES): CCCCS(=O)(=O)Nc1ccc2cnn(C)c2c1 [GSK3011724A]
- EC50 [1]: > 100 µM
- EC50 [2]: > 100 µM
- EC50 [3]: > 50.1 µM
- EC50 [4]: > 50.1 µM
- EC50 [5]: > 25.1 µM
- EC50 [6]: > 50.1 µM
- EC50 [7]: > 100 µM
- EC50 [8]: > 100 µM
- EC50 [9]: > 100 µM
- EC50 [10]: > 25.1 µM
- EC50 [11]: > 50.1 µM
- EC50 [12]: > 100 µM
- EC50 [13]: > 50.1 µM
- EC50 [14]: > 100 µM
- EC50 [15]: > 100 µM
- EC50 [16]: > 100 µM
- Kd [17]: 1.4 µM
- IC50 [18]: > 100 µM
- IC50 [19]: > 100 µM
- IC50 [20]: > 31.6 µM
- IC50 [21]: > 100 µM
- IC50 [22]: > 31.6 µM
- Kd [23]: 4 to 6 µM
- IC50 [24]: > 50.1 µM
- IC50 [25]: > 100 µM
- IC50 [26]: > 50.1 µM
- IC50 [27]: > 25.1 µM
- IC50 [28]: > 50.1 µM
- IC50 [29]: > 50.1 µM
- IC50 [30]: > 25.1 µM
- IC50 [31]: > 50.1 µM
- IC50 [32]: > 100 µM
- IC50 [33]: > 100 µM
- IC50 [34]: > 100 µM
- IC50 [35]: > 25.1 µM
- IC50 [36]: > 50.1 µM
- IC50 [37]: > 50.1 µM
- IC50 [38]: > 50.1 µM
- IC50 [39]: > 25.1 µM
- IC50 [40]: > 63.1 µM
- IC50 [41]: > 25.1 µM
- IC50 [42]: > 25.1 µM
- IC50 [43]: > 100 µM
- IC50 [44]: > 100 µM
- Kd [45]: 1.4 µM
- Kd [46]: 0.01 to 0.02 µM
